We go through 3 molecules from US8748464B2, “Use of SIRT1 activators or inhibitors to modulate an immune response” (The J. David Gladstone Institutes, priority 2008, dated 2014).

In one test the test system is Jurkat T cells. Nature of the test: IL-2 protein ELISA in supernatant of α-CD3-stimulated Jurkat T cells infected with EF-1α-GFP or EF-1α-Tat-GFP viruses. It is filed as cell-based, human. Particulars: 16 hrs. On the procedure:
Lentiviral vectors, which contained the heterologous elongation factor 1α (EF-1α) promoter driving Tat and GFP expression, were generated. High titer viral stocks were produced and used to infect Jurkat T cells. […] Infected cultures were stimulated with antibodies specific for the CD3 receptor and treated with increased concentrations of resveratrol (0.4 μM, 2 μM, and 10 μM), a known SIRT1 activator for 16 hrs. IL-2 protein was measured in the culture supernatant by ELISA assay. Following stimulation with α-CD3 antibody, IL-2 protein was superinduced ˜4-fold by wild type Tat (FIG. 8A). In cells expressing Tat, ˜2300 pg/ml of IL-2 protein was detected in response to α-CD3 treatment, whereas in control cells, only ˜600 pg/ml of IL-2 protein was induced.
The effects of small molecule of SIRT1 ([…]) on T cell hyperactivation in Tat-expressing cells were examined. Jurkat T cells were infected with EF-1α-GFP or EF-1α-Tat-GFP viruses (FIG. 8B). Infected cultures were stimulated with α-CD3 antibody and treated with SRT2183 (0.2, 1, and 5 μM) for 16 hrs.
FIGS. 8A and 8B. Resveratrol and small molecule activator of SIRT1 (SRT2183) suppresses T cell hyperactivation by Tat. (A) IL-2 protein levels measured by ELISA in the supernatant of infected cultures. 24 hrs after infection with EF1α-GFP and EF1α-Tat-GFP viruses, Jurkat T cells were stimulated with α-CD3 antibody in the presence of increased concentrations of resveratrol (0.4, 2, and 10 μM) for 16 hrs. (B) 24 hrs after infection with EF1α-GFP and EF1α-Tat-GFP viruses, Jurkat T cells were stimulated with α-CD3 antibody in the presence of increased concentrations of SRT2183 (0.2, 1, and 5 μM) for 16 hrs. IL-2 protein levels were measured by ELISA in the supernatant of infected cultures.
In general terms: An ELISA detects its analyte on a solid surface through an enzyme-linked reagent.

Test [1] relates to FLAG-FoxP3 in 293 T cells. Nature of the test: Western blot of FLAG-FoxP3 (wild type or mutant) or FLAG-AML1/Runx1 expression in 293 T cells. It is filed as cell-based. As to conditions: for expression of FLAG-AML1/Runx1 / FoxP3 protein expression: Ex-527 50 μM or TSA 400 nM, 16 hours; for FoxP3 protein expression: nicotinamide 5 mM. The protocol: To determine whether the three newly identified acetylated lysine residues regulate FoxP3 stability, mutants were generated in which each of three lysine residues was substituted to arginines (KR), a conservative mutation that preserves the positive charge of the residue.
To investigate the effect of SIRT1 inhibition and the three newly identified acetylation sites on FoxP3 protein stability, wild type and 3KR mutant FoxP3 protein expression was measured after treatment with cycloheximide (CHX), a general inhibitor of protein translation.
(B) Scheme of acetylated lysine residues identified by mass spectrometry using immunoprecipitated FLAG-FoxP3 protein. The murine protein is shown.
(In western blotting, separated proteins are transferred to a membrane and probed.)

Test [2] deals with naïve CD4+ T cells undergoing differentiation into iTreg cells. In words: Intracellular flow cytometry of FoxP3 in naïve CD4+ T cells differentiating into iTreg cells. The format is cell-based, mouse. The protocol:
To gain insight into the role of SIRT1 in Treg biology, SIRT1 protein expression during ex vivo Treg differentiation was analyzed. Naïve CD4^+ T cells (CD4+CD25-CD69-CD44-) were isolated from mouse spleen and lymph nodes and were activated by anti-CD3/CD28 antibodies alone or in combination with cytokines driving differentiation into T helper (Th) 1, Th2 or induced Treg (iTreg) cells. While SIRT1 expression was increased upon CD3/CD28 activation, it was decreased after T cell differentiation, most noticeably in iTregs (FIG. 9A, lane 5).
To test whether SIRT1 plays a role in iTreg differentiation, SIRT1 was overexpressed during iTreg differentiation. Activated CD4+ cells were infected with bicistronic retroviral vectors expressing SIRT1 and the Thy1.1 surface marker (MSCV-SIRT1-Thy1.1) or a control vector expressing Thy1.1 alone (MSCV-Thy1.1). Cell were further differentiated into Tregs in the presence of recombinant human TGF-β and recombinant human IL-2 as previously described (Fu et al., 2004). After 3 days, cells were stained for surface Thy1.1 and intracellular FoxP3 and analyzed by flow cytometry. […] Cells were cultured 3 more days in IL-2 alone and were reanalyzed at day 6 after infection. Both, the number of FoxP3^+/Thy1.1^+ cells and FoxP3 MFI were decreased in SIRT1-expressing cells (FIG. 9B). The opposite result was observed when SIRT1 was knocked down during iTreg differentiation using lentiviral shRNA vectors.
To test the effect of Ex-527 on FoxP3 expression in […] FoxP3-expressing cells, Ex-527 was added to naïve CD4+ T cells undergoing differentiation into iTreg cells. The number of FoxP3-expressing cells increased up to 3-fold in the presence of Ex-527 as compared to cells treated with the drug vehicle alone (FIG. 12A). […]
FIGS. 12A and 12B. […] (B) Flow cytometry of GFP in natural Treg populations isolated from GFP-FoxP3 knock-in mice, in which GFP is expressed as a fusion protein with FoxP3. […] Cells were further cultured with either DMSO or Ex-527 for additional 2 and 7 days and FoxP3 expression was analyzed as in (A). […]
On the technique in general: A flow cytometer gives signals particle by particle.

Test [3] concerns natural thymus-derived Treg cells. Nature of the test: Ex vivo expansion of natural Tregs from GFP-Foxp3 knock-in mice, flow cytometry of GFP and western blot. It is filed as cell-based, mouse. The protocol: To test the effect of Ex-527 in natural thymus-derived Treg cells, GFP+ cells were isolated from GFP-Foxp3 knock-in mice, in which green fluorescent protein (GFP) is expressed as a fusion protein with FoxP3. Total CD4+ T cells were isolated from spleen and lymph nodes of these mice, and GFP+ T cells were sorted with >95% purity. GFP+ T cells were expanded by anti-CD3/CD28 beads and IL-2 for 5 days when Ex-527 or dimethylsulfoxide (DMSO) was added. Two days later, 75% of cells were GFP-positive regardless whether Ex-527 was added or not; however, the MFI of GFP was increased in Ex-527-treated cells (FIG. 12B, day 7). 7 days later, only 5% of cells remained GFP-positive in control-treated cells versus 45% in Ex-527-treated cultures (FIG. 12B, day 12). In addition, the […] of FoxP3 remained higher in Ex-527-treated cells versus control-treated cells (387 versus 263). […] No FoxP3 expression was detected from either GFP-negative cells or cells expanded in the absence of Ex-527 (FIG. 12B). […] Thus, SIRT1 inhibitors, e.g., Ex-527, can be used to maximize ex vivo or in vivo expansion of Tregs for therapeutic purposes.
FIGS. 12A and 12B. Inhibition of SIRT1 activity by Ex-527 promotes differentiation of iTreg cells and FoxP3 expression in nTreg cells. (A) Intracellular flow cytometry (% FoxP3+ cells and MFI) of FoxP3 in induced Tregs treated during differentiation with Ex-527 (50 μM) or DMSO as control. Shown are averages of three independent experiments (mean±SD). (B) Flow cytometry of GFP in natural Treg populations isolated from GFP-FoxP3 knock-in mice, in which GFP is expressed as a fusion protein with FoxP3. GFP+ nTregs were expanded by α-CD3/CD28 beads and hIL-2 (2000 U/ml) for 5 days. Cells were further cultured with either DMSO or Ex-527 for additional 2 and 7 days and FoxP3 expression was analyzed as in (A). Western blot analysis of FoxP3 in cell lysates from GFP−, GFP+, and GFP+ cultures expanded as described in the presence of DMSO or EX-527.

In test [4] the test system is FLAG-FoxP3 in 293 T cells. Nature of the test: Immunoprecipitation/western blot of acetylated FLAG-FoxP3 or HA-AML1/Runx1 in 293 T cells cotransfected with p300. The format is cell-based. From the text:
FIGS. 10A-D. SIRT1 interacts with FoxP3 and inhibition of SIRT1 deacetylase activity increases acetylation of FoxP3. (A) Communoprecipitation/western blot analysis of FLAG-tagged FoxP3 and HA-tagged SIRT1 after transfection of corresponding expression vectors or empty vector controls into 293T cells. (B) Communoprecipitation assay of SIRT1 and FoxP3 deletion mutants. A schematic summary of the binding of FoxP3 mutants to SIRT1 is shown. The forkhead box (FH) indicates the DNA binding domain ZnF, zinc finger domain; LZ, leucine zipper. […] An expression vector for the p300 acetyltransferase was cotransfected with FoxP3. (D) The same experiment as in (C) using HA-AML1/Runx1. Immunoprecipitations were performed with either anti-FLAG antibody coupled to agarose (α-FLAG agarose) (C) or anti-hemagglutinin antibody coupled to agarose (α-HA agarose) (D) and western blotting with rabbit polyclonal antibody to acetyl-lysine (α-acetyl lysine) (α-AcK), α-FLAG or α-HA antibodies.

Where [5] appears, read: 50 μM during iTreg differentiation.
Where [6] appears, read: day 7 (two days after addition).

`O=C(Nc1ccccc1-c1cn2c(CN3CC[C@@H](O)C3)csc2n1)c1ccc2ccccc2c1` [SRT2183]: in the test on Jurkat T cells (5 μM), the “IL-2 protein in Tat expressing cells” value is reported as “suppressed the production of IL-2 protein” and the “IL-2 protein in control cells” value is reported as “slight increase in IL-2 protein”. Moreover, the “IL-2 protein in control and Tat expressing cells” value in the test with Jurkat T cells (0.2 and 1 μM) is reported as “caused increases in IL-2 protein”.
`NC(=O)C1CCCc2c1[nH]c1ccc(Cl)cc21` (centres unmarked) [Ex-527, 6-chloro-2,3,4,9-tetrahydro-1H-carbazole-1-carboxamide]: in test [1] (293 T cells), the “FoxP3 mRNA levels” value is “No effect”, the “expression of FLAG-AML1/Runx1” value is “unchanged” and the FoxP3 protein expression entry was “increased FoxP3 protein expression to a similar extent as nicotinamide”. For the same molecule, in test [1] (293 T cells, 50 μM), the “expression of K31R mutant FLAG-FoxP3” value is “increased expression of the K31R mutant to comparable levels as the wild type FoxP3 protein”; the “expression of K262/267R double mutant FLAG-FoxP3” value is given as “could not further increase”; the “increase of expression of K262R and K267R mutant FLAG-FoxP3” value is “less visible”. Besides, the “wild type FoxP3 protein expression after cycloheximide” value in test [1] (4 h of CHX treatment) is “stabilized FoxP3 protein expression”. Further, in test [1] (4 hour-time point of CHX treatment), the “3KR mutant FoxP3 protein expression after cycloheximide” value is “no further stabilization”. Further, in test [2] (setting [5]), the “increase of mean fluorescent intensity (MFI) of FoxP3 expression” value was “up to 2 fold” and the “increase of number of FoxP3-expressing cells vs drug vehicle” value is given as “up to 3 fold”. For the same molecule, in test [2] (during iTreg differentiation), the “FoxP3 mRNA levels in iTreg cells” value is recorded as “no effect”. In test [3] (setting [6]), the GFP-positive cells is 75% and the “MFI of GFP” value is listed as “increased”. Besides, in test [3] (day 12), the “FoxP3 expression by western blot analysis” value is reported as “remained visible” and the “MFI of FoxP3” value stood at 387. For the same molecule, the GFP-positive cells in test [3] (day 12 (7 days after addition)) was found to be 45%.
In the case of `CC(/C=C/C(=O)NO)=C\[C@@H](C)C(=O)c1ccc(N(C)C)cc1` [trichostatin A], in test [4], the “acetylation levels of FoxP3” value is on record as “hyperacetylation” and the “acetylation of AML1/Runx1” value is reported as “increased to the same extent”. Besides, in test [1] (293 T cells), the “expression of FLAG-AML1/Runx1” value was “increased both FoxP3 and AML1/Runx1 expression”; the FoxP3 protein expression result is “increased both FoxP3 and AML1/Runx1 expression”.
